According to ChEMBL document CHEMBL4342527, “Discovery of Novel Fungal Lanosterol 14α-Demethylase (CYP51)/Histone Deacetylase Dual Inhibitors to Treat Azole-Resistant Candidiasis” (J Med Chem, 2020):
In brackets after ≈: the same amount, converted by molar mass.

How the values were obtained:
[1] = system: Candida albicans; experiment: Antifungal activity against azole-resistant Candida albicans 0304103 after 48 hrs by spectrophotometry-based serial microdilution method; assay type: functional; conditions: Candida albicans, 0304103, 48 h
[2] = system: Candida tropicalis; experiment: Antifungal activity against azole-resistant Candida tropicalis 5008 after 48 hrs by spectrophotometry-based serial microdilution method; assay type: functional; conditions: Candida tropicalis, 5008, 48 h
[3] = system: Cryptococcus neoformans; experiment: Antifungal activity against azole-sensitive Cryptococcus neoformans H99 after 72 hrs by spectrophotometry-based serial microdilution method; assay type: functional, var grubii H99
[4] = system: Candida albicans; experiment: Antifungal activity against azole-sensitive Candida albicans SC5314 after 48 hrs by spectrophotometry-based serial microdilution method; assay type: functional
[5] = system: Candida albicans; experiment: Antifungal activity against azole-resistant Candida albicans 4108 after 48 hrs by spectrophotometry-based serial microdilution method; assay type: functional; conditions: Candida albicans, 4108, 48 h
[6] = system: Candida albicans; experiment: Antifungal activity against azole-resistant Candida albicans 7781 after 48 hrs by spectrophotometry-based serial microdilution method; assay type: functional; conditions: Candida albicans, 7781, 48 h
[7] = Cryptococcus neoformans, var grubii H99 , 72 h, read-out: MIC80
[8] = Candida albicans, SC5314, 48 h, read-out: MIC80

SMILES	MIC80 [1]	MIC80 [2]	MIC80 [3, 7]	MIC80 [4, 8]	MIC80 [5]	MIC80 [6]	MIC80 [3]	MIC80 [4]
O=C(NO)c1ccc(OCCCCc2ncnn2CC(O)(Cn2cncn2)c2ccc(F)cc2F)cc1 (racemic)	32 µg/mL (≈ 62.3 µM)	> 64 µg/mL	64 µg/mL (≈ 125 µM)	32 µg/mL (≈ 62.3 µM)	> 64 µg/mL	> 64 µg/mL		
CN(Cc1ccc(CCCCOc2ccc(CC(=O)NO)cc2)cc1)CC(O)(Cn1cncn1)c1ccc(F)cc1F (racemic)	0.5 µg/mL (≈ 0.863 µM)	0.5 µg/mL (≈ 0.863 µM)	0.5 µg/mL (≈ 0.863 µM)	0.125 µg/mL (≈ 0.216 µM)	1 µg/mL (≈ 1.73 µM)	1 µg/mL (≈ 1.73 µM)		
CN(Cc1ccc(-n2cnn(CCCC(=O)NO)c2=O)cc1)CC(O)(Cn1cncn1)c1ccc(F)cc1F (racemic)	64 µg/mL (≈ 118 µM)	8 µg/mL (≈ 14.7 µM)	2 µg/mL (≈ 3.69 µM)	8 µg/mL (≈ 14.7 µM)	8 µg/mL (≈ 14.7 µM)	32 µg/mL (≈ 59 µM)		
O=C(CCCCCCC(=O)Nc1ccccc1)NO [VORINOSTAT]							>64 µg/mL	>64 µg/mL
O=C(NO)c1ccc(OCCCCc2ncn(CC(O)(Cn3cncn3)c3ccc(F)cc3F)n2)cc1 (racemic)	> 64 µg/mL	> 64 µg/mL	64 µg/mL (≈ 125 µM)	4 µg/mL (≈ 7.79 µM)	> 64 µg/mL	64 µg/mL (≈ 125 µM)		
C[C@@H](c1ncncc1F)[C@](O)(Cn1cncn1)c1ccc(F)cc1F [VORICONAZOLE]	> 64 µg/mL	> 64 µg/mL	0.0625 µg/mL (≈ 0.179 µM)	0.125 µg/mL (≈ 0.358 µM)	> 64 µg/mL	> 64 µg/mL		
CN(Cc1ccc(OCCCCCCC(=O)NO)cc1)CC(O)(Cn1cncn1)c1ccc(F)cc1F (racemic)	1 µg/mL (≈ 1.93 µM)	2 µg/mL (≈ 3.86 µM)	1 µg/mL (≈ 1.93 µM)	1 µg/mL (≈ 1.93 µM)	1 µg/mL (≈ 1.93 µM)	1 µg/mL (≈ 1.93 µM)		
CCN(Cc1ccc(OCCCOc2ccc(CC(=O)NO)cc2)cc1)CC(O)(Cn1cncn1)c1ccc(F)cc1F (racemic)	1 µg/mL (≈ 1.68 µM)	4 µg/mL (≈ 6.72 µM)	1 µg/mL (≈ 1.68 µM)	0.25 µg/mL (≈ 0.42 µM)	4 µg/mL (≈ 6.72 µM)	1 µg/mL (≈ 1.68 µM)		
O=C(NO)c1ccc(OCCCc2ncnn2CC(O)(Cn2cncn2)c2ccc(F)cc2F)cc1 (racemic)	32 µg/mL (≈ 64.1 µM)	> 64 µg/mL	64 µg/mL (≈ 128 µM)	64 µg/mL (≈ 128 µM)	64 µg/mL (≈ 128 µM)	8 µg/mL (≈ 16 µM)		
CN(Cc1ccc(-n2cnn(CCCCCC(=O)NO)c2=O)cc1)CC(O)(Cn1cncn1)c1ccc(F)cc1F (racemic)	16 µg/mL (≈ 28 µM)	64 µg/mL (≈ 112 µM)	8 µg/mL (≈ 14 µM)	32 µg/mL (≈ 56.1 µM)	64 µg/mL (≈ 112 µM)	32 µg/mL (≈ 56.1 µM)		
CN(Cc1ccccc1OCCCOc1ccc(CCC(=O)NO)cc1)CC(O)(Cn1cncn1)c1ccc(F)cc1F (racemic)	1 µg/mL (≈ 1.68 µM)	64 µg/mL (≈ 107 µM)	2 µg/mL (≈ 3.36 µM)	1 µg/mL (≈ 1.68 µM)	2 µg/mL (≈ 3.36 µM)	1 µg/mL (≈ 1.68 µM)		
CC(C)N(Cc1ccc(OCCCOc2ccc(CC(=O)NO)cc2)cc1)CC(O)(Cn1cncn1)c1ccc(F)cc1F (racemic)	2 µg/mL (≈ 3.28 µM)	4 µg/mL (≈ 6.56 µM)	2 µg/mL (≈ 3.28 µM)	2 µg/mL (≈ 3.28 µM)	4 µg/mL (≈ 6.56 µM)	2 µg/mL (≈ 3.28 µM)		
CN(Cc1ccc(OCCCCC(=O)NO)cc1)CC(O)(Cn1cncn1)c1ccc(F)cc1F (racemic)	2 µg/mL (≈ 4.09 µM)	8 µg/mL (≈ 16.3 µM)	2 µg/mL (≈ 4.09 µM)	2 µg/mL (≈ 4.09 µM)	8 µg/mL (≈ 16.3 µM)	2 µg/mL (≈ 4.09 µM)		
CN(Cc1ccc(OCCCCCCCC(=O)NO)cc1)CC(O)(Cn1cncn1)c1ccc(F)cc1F (racemic)	0.5 µg/mL (≈ 0.941 µM)	1 µg/mL (≈ 1.88 µM)	0.5 µg/mL (≈ 0.941 µM)	0.25 µg/mL (≈ 0.47 µM)	0.5 µg/mL (≈ 0.941 µM)	0.5 µg/mL (≈ 0.941 µM)		
CN(Cc1ccc(-n2cnn(CCCCC(=O)NO)c2=O)cc1)CC(O)(Cn1cncn1)c1ccc(F)cc1F (racemic)	64 µg/mL (≈ 115 µM)	> 64 µg/mL	64 µg/mL (≈ 115 µM)	32 µg/mL (≈ 57.5 µM)	> 64 µg/mL	> 64 µg/mL		
CN(Cc1ccc(OCCCOc2ccc(CCC(=O)NO)cc2)cc1)CC(O)(Cn1cncn1)c1ccc(F)cc1F (racemic)	2 µg/mL (≈ 3.36 µM)	4 µg/mL (≈ 6.72 µM)	1 µg/mL (≈ 1.68 µM)	1 µg/mL (≈ 1.68 µM)	4 µg/mL (≈ 6.72 µM)	2 µg/mL (≈ 3.36 µM)		
CN(Cc1ccc(OCCCCCC(=O)NO)cc1)CC(O)(Cn1cncn1)c1ccc(F)cc1F (racemic)	2 µg/mL (≈ 3.97 µM)	8 µg/mL (≈ 15.9 µM)	1 µg/mL (≈ 1.99 µM)	1 µg/mL (≈ 1.99 µM)	4 µg/mL (≈ 7.94 µM)	1 µg/mL (≈ 1.99 µM)		
CN(Cc1ccc(-n2cnn(CCOc3ccc(CC(=O)NO)cc3)c2=O)cc1)CC(O)(Cn1cncn1)c1ccc(F)cc1F (racemic)	4 µg/mL (≈ 6.3 µM)	8 µg/mL (≈ 12.6 µM)	4 µg/mL (≈ 6.3 µM)	2 µg/mL (≈ 3.15 µM)	32 µg/mL (≈ 50.4 µM)	4 µg/mL (≈ 6.3 µM)		
CN(Cc1ccc(CCCC(=O)Nc2ccc(CC(=O)NO)cc2)cc1)CC(O)(Cn1cncn1)c1ccc(F)cc1F (racemic)	1 µg/mL (≈ 1.69 µM)	32 µg/mL (≈ 54 µM)	1 µg/mL (≈ 1.69 µM)	1 µg/mL (≈ 1.69 µM)	1 µg/mL (≈ 1.69 µM)	1 µg/mL (≈ 1.69 µM)		
CN(Cc1ccc(CCCOc2ccc(CC(=O)NO)cc2)cc1)CC(O)(Cn1cncn1)c1ccc(F)cc1F (racemic)	0.5 µg/mL (≈ 0.884 µM)	2 µg/mL (≈ 3.54 µM)	0.5 µg/mL (≈ 0.884 µM)	0.125 µg/mL (≈ 0.221 µM)	0.5 µg/mL (≈ 0.884 µM)	0.25 µg/mL (≈ 0.442 µM)		
CN(Cc1cccc(OCCCOc2ccc(C(=O)NO)cc2)c1)CC(O)(Cn1cncn1)c1ccc(F)cc1F (racemic)	2 µg/mL (≈ 3.52 µM)	4 µg/mL (≈ 7.05 µM)	0.125 µg/mL (≈ 0.22 µM)	1 µg/mL (≈ 1.76 µM)	2 µg/mL (≈ 3.52 µM)	4 µg/mL (≈ 7.05 µM)		
CN(Cc1ccc(-n2cnn(CCCCCCCCC(=O)NO)c2=O)cc1)CC(O)(Cn1cncn1)c1ccc(F)cc1F (racemic)	4 µg/mL (≈ 6.53 µM)	8 µg/mL (≈ 13.1 µM)	4 µg/mL (≈ 6.53 µM)	2 µg/mL (≈ 3.26 µM)	32 µg/mL (≈ 52.2 µM)	4 µg/mL (≈ 6.53 µM)		
CN(Cc1ccc(-n2cnn(CCCCCCCC(=O)NO)c2=O)cc1)CC(O)(Cn1cncn1)c1ccc(F)cc1F (racemic)	8 µg/mL (≈ 13.4 µM)	8 µg/mL (≈ 13.4 µM)	2 µg/mL (≈ 3.34 µM)	16 µg/mL (≈ 26.7 µM)	64 µg/mL (≈ 107 µM)	8 µg/mL (≈ 13.4 µM)		
CN(Cc1cccc(OCCCOc2ccc(CCC(=O)NO)cc2)c1)CC(O)(Cn1cncn1)c1ccc(F)cc1F (racemic)	8 µg/mL (≈ 13.4 µM)	8 µg/mL (≈ 13.4 µM)	2 µg/mL (≈ 3.36 µM)	4 µg/mL (≈ 6.72 µM)	4 µg/mL (≈ 6.72 µM)	8 µg/mL (≈ 13.4 µM)		
CN(Cc1ccc(-n2cnn(CCCOc3ccc(CC(=O)NO)cc3)c2=O)cc1)CC(O)(Cn1cncn1)c1ccc(F)cc1F (racemic)	32 µg/mL (≈ 49.3 µM)	4 µg/mL (≈ 6.17 µM)	8 µg/mL (≈ 12.3 µM)	64 µg/mL (≈ 98.7 µM)	32 µg/mL (≈ 49.3 µM)	4 µg/mL (≈ 6.17 µM)		
O=C(Cc1ccc(OCCCc2ncnn2CC(O)(Cn2cncn2)c2ccc(F)cc2F)cc1)NO (racemic)	32 µg/mL (≈ 62.3 µM)	> 64 µg/mL	64 µg/mL (≈ 125 µM)	8 µg/mL (≈ 15.6 µM)	> 64 µg/mL	16 µg/mL (≈ 31.2 µM)		
CN(Cc1ccccc1OCCCOc1ccc(CC(=O)NO)cc1)CC(O)(Cn1cncn1)c1ccc(F)cc1F (racemic)	2 µg/mL (≈ 3.44 µM)	2 µg/mL (≈ 3.44 µM)	0.5 µg/mL (≈ 0.86 µM)	1 µg/mL (≈ 1.72 µM)	2 µg/mL (≈ 3.44 µM)	2 µg/mL (≈ 3.44 µM)		
CN(Cc1ccc(-n2cnn(CCCc3ccc(C(=O)NO)cc3)c2=O)cc1)CC(O)(Cn1cncn1)c1ccc(F)cc1F (racemic)	4 µg/mL (≈ 6.47 µM)	8 µg/mL (≈ 12.9 µM)	2 µg/mL (≈ 3.23 µM)	32 µg/mL (≈ 51.7 µM)	32 µg/mL (≈ 51.7 µM)	2 µg/mL (≈ 3.23 µM)		
CN(Cc1ccc(OCCCOc2ccc(C(=O)NO)cc2)cc1)CC(O)(Cn1cncn1)c1ccc(F)cc1F (racemic)	0.5 µg/mL (≈ 0.881 µM)	0.25 µg/mL (≈ 0.44 µM)	0.5 µg/mL (≈ 0.881 µM)	0.125 µg/mL (≈ 0.22 µM)	1 µg/mL (≈ 1.76 µM)	1 µg/mL (≈ 1.76 µM)		
